Test: Pharmacokinetic study of celecoxib implants in Wistar rats

Which results are given for `NS(=O)(=O)c1ccc(-n2nc(C(F)(F)F)cc2-c2ccc(C(=O)O)cc2)cc1` [HOOC-celecoxib]?
presence of the metabolite HOOC-celecoxib after implantation (celecoxib implant): present in the rats during more than two years; concentration of HOOC-celecoxib in the serum and in the PF, intraperitoneal vs subcutaneous implant (serum and peritoneal liquid): No differences

What does the source list for `NS(=O)(=O)c1ccc(-n2nc(C(F)(F)F)cc2-c2ccc(CO)cc2)cc1` [HO-celecoxib]?
presence of the metabolite HO-celecoxib after implantation (celecoxib implant): present in the rats during more than two years; concentration of HO-celecoxib in peritoneal liquid, intraperitoneal vs subcutaneous implant (peritoneal liquid): tendency to a higher concentration; concentration of HO-celecoxib in serum, intraperitoneal vs subcutaneous implant (serum): No differences

With `Cc1ccc(-c2cc(C(F)(F)F)nn2-c2ccc(S(N)(=O)=O)cc2)cc1` [celecoxib, reference compound] as the compound, how does the metabolism of celecoxib (after implantation of celecoxib implant) read?
The metabolism of celecoxib was “metabolized in rats”.

Source: patent US20130297040A1, “IMPLANT HAVING A CORE AND A TUBE ENCASING THE CORE” (UNIVERSITE DE LIEGE, priority 2011, published 2013)
